Reference: patent US4533553A, “Polycyclic ether antibiotic” (priority 1983, dated 1985)

Tested on: rumen fluid
Experiment: in vitro rumen technique, propionic acid production
Set-up: species or system cow
Description: The value of animal feeds generally has been determined directly by feeding the animal. British Patent Specification No. 1,197,826 details an in vitro rumen technique whereby the changes occurring in feeds brought about by microorganisms are measured more readily and with great accuracy in the evaluation of animal feeds. This technique involves the use of an apparatus in which the digestive processes of the animals are conducted and studied in vitro. The animal feeds, rumen inoculum and various growth promotants are introduced into and withdrawn from a laboratory unit under carefully controlled conditions and the changes taken place are studied critically and progressively during the consumption of the feed by the microorganisms. […] The change in propionic acid content is expressed as percent of the propionic acid content found in the control rumen fluid. Long term in vivo feeding studies are used to show a reliable correlation between propionic acid increase in the rumen fluid and improved animal performance.
Rumen fluid is collected from a fistulated cow which is fed on a commercial fattening ration plus hay. The rumen fluid is immediately filtered through cheese cloth, and 10 ml added to a 50 ml conical flask containing 400 mg. of standard substrate (68% corn starch+17% cellulose+15% extracted soybean meal), 10 ml. of a pH 6.8 buffer and the test compound. The flasks are gassed with oxygen free nitrogen for about two minutes, and incubated in a shaking water bath at 39° C. for about 16 hours. All tests are conducted in triplicate.
After incubation, 5 ml. of the sample is mixed with 1 ml. of 25% metaphosphoric acid. After 10 minutes 0.25 ml. of formic acid is added and the mixture centrifuged at 1,500 r.p.m. for 10 minutes. Samples are then analyzed by gas-liquid chromatograhy by the method of D. W. Kellog, J. Dairy Science, 52, 1690 (1969). Peak heights for acetic, propionic and butyric acids are determined for samples from untreated and treated incubation flasks.

Q: For `CC[C@@H](C(=O)[C@@H](C)[C@@H](O)[C@H](C)[C@@H]1O[C@@H]([C@@H](CC)C(=O)O)CC[C@@H]1C)[C@H]1O[C@]2(C=C[C@@H](O)[C@]3(CC[C@@](C)([C@H]4CC[C@](O)(CC)[C@H](C)O4)O3)O2)[C@H](C)C[C@@H]1C` [Salinomycin, reference compound], which “increase in propionic acid” value (5 μg./ml., comparison with Salinomycin) is on record?
A: about 52%

Q: `CC[C@@]1([C@@H]2O[C@@H]([C@H]3O[C@@](O)(CO)[C@H](C)C[C@@H]3C)C[C@@H]2C)CC[C@H]([C@]2(C)CC[C@]3(C[C@H](O)[C@@H](C)[C@@H]([C@@H](C)[C@@H](OC)[C@H](C)C(=O)O)O3)O2)O1` [Monensin, reference compound] was tested. Which “increase of propionic acid over the control” value (10 μg./ml.) did it give?
A: about 20%
